How the values were obtained:
[1] = biological target: T1, Mitogen-activated protein kinase 14 (Homo sapiens, UniProt Q16539); test: Inhibition of p38alpha assessed as residual activity at 10 uM relative to control
[2] = biological target: T2, Mitogen-activated protein kinase 9 (Homo sapiens, UniProt P45984); test: Inhibition of JNK2
Target sequence in this assay (P45984 whole entry): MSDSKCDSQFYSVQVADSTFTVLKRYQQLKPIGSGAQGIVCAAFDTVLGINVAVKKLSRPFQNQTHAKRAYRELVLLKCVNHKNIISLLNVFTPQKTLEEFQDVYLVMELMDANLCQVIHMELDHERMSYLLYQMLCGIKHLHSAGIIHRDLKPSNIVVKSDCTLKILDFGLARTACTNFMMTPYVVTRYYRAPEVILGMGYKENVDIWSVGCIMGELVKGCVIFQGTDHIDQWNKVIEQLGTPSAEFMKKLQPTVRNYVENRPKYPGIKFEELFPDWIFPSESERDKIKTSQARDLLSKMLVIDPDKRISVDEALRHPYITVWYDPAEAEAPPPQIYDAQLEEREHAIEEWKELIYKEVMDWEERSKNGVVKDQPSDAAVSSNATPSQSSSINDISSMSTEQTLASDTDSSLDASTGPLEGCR

[3] = biological target: Mitogen-activated protein kinase 3 (Homo sapiens) (UniProt P27361); test: Inhibition of ERK1 assessed as residual activity at 10 uM relative to control
Chain of Mitogen-activated protein kinase 3 (Homo sapiens) (P27361 whole entry): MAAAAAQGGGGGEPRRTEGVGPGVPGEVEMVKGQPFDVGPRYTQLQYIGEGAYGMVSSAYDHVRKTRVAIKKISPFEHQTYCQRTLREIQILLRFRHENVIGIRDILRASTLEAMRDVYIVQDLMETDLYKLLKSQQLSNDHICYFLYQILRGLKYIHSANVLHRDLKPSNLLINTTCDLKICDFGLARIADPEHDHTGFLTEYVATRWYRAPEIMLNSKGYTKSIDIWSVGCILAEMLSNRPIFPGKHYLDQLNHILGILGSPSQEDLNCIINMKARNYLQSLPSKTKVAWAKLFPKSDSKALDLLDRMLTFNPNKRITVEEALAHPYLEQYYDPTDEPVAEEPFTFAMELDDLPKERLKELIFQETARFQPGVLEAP

[4] = biological target: Mitogen-activated protein kinase 1 (Homo sapiens) (UniProt P28482); test: Residual activity of ERK2 at 10 uM relative to control
Chain of Mitogen-activated protein kinase 1 (Homo sapiens) (P28482 whole entry): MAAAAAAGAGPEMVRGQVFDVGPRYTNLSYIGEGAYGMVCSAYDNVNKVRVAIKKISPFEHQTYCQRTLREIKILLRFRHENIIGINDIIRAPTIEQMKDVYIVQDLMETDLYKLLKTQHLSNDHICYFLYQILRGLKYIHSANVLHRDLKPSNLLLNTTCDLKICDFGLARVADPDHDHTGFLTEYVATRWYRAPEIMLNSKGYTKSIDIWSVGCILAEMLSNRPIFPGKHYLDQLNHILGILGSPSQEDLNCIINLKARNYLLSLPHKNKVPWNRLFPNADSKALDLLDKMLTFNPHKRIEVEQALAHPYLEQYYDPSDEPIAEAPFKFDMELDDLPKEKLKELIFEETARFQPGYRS

[5] = biological target: Mitogen-activated protein kinase 8 (Homo sapiens) (UniProt P45983); test: Residual activity of JNK1 at 10 uM relative to control
Chain of Mitogen-activated protein kinase 8 (Homo sapiens) (P45983 whole entry): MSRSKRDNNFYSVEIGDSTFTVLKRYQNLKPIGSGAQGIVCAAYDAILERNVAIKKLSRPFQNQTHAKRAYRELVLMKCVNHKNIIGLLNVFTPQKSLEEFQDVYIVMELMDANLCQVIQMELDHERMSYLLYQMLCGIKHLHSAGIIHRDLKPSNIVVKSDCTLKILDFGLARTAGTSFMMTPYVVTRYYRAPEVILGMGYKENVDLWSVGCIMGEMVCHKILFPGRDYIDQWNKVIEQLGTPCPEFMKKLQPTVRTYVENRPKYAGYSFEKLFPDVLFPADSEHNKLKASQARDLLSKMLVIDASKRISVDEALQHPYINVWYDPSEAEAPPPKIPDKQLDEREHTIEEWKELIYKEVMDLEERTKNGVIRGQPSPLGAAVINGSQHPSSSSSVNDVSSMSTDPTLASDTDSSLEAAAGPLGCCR

[6] = biological target: T2, Mitogen-activated protein kinase 9; test: Residual activity of JNK2 at 10 uM relative to control
Target sequence in this assay (P45984 whole entry, looked up): as the sequence (P45984 whole entry) above

[7] = biological target: Mitogen-activated protein kinase 10 (Homo sapiens) (UniProt P53779); test: Residual activity of JNK3 at 10 uM relative to control
Chain of Mitogen-activated protein kinase 10 (Homo sapiens) (P53779 whole entry): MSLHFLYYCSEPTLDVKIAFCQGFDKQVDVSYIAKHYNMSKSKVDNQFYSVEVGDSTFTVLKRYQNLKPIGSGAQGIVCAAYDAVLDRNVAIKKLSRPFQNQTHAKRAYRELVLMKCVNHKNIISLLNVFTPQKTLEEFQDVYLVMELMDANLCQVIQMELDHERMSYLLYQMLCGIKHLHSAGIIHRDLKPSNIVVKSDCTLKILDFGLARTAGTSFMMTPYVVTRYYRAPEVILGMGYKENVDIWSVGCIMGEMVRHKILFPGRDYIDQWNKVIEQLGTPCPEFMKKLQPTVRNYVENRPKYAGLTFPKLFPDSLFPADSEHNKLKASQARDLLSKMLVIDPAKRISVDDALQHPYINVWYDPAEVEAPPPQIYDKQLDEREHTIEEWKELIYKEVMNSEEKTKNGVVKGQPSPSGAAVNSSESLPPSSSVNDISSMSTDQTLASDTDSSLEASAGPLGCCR

[8] = biological target: Mitogen-activated protein kinase 11 (Homo sapiens) (UniProt Q15759); test: Residual activity of p38beta at 10 uM relative to control
Chain of Mitogen-activated protein kinase 11 (Homo sapiens) (Q15759 whole entry): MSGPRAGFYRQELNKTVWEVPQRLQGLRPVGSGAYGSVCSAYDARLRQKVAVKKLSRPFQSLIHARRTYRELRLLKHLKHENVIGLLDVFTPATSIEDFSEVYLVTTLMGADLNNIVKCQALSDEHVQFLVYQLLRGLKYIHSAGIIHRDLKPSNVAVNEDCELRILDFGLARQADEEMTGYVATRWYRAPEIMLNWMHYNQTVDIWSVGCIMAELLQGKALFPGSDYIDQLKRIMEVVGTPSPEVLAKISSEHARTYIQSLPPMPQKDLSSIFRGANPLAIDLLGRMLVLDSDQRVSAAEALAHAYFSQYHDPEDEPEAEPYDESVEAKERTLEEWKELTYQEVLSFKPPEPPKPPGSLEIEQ

[9] = biological target: T3, Mitogen-activated protein kinase 12 (Homo sapiens) (UniProt P53778); test: Residual activity of p38-gamma at 10 uM relative to control; assay type: functional
T3 sequence (whole entry): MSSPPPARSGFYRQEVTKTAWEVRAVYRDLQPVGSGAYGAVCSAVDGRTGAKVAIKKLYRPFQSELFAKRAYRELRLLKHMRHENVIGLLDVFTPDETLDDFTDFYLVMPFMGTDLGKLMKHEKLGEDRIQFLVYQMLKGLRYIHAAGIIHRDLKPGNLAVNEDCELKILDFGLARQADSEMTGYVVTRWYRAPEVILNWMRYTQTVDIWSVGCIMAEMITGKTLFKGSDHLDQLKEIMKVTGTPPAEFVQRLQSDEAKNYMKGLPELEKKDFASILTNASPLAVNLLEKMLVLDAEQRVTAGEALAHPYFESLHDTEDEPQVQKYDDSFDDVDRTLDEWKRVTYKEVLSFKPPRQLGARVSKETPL

[10] = biological target: T4, Mitogen-activated protein kinase 13 (Homo sapiens) (UniProt O15264); test: Residual activity of p38delta at 10 uM relative to control
T4 sequence (whole entry): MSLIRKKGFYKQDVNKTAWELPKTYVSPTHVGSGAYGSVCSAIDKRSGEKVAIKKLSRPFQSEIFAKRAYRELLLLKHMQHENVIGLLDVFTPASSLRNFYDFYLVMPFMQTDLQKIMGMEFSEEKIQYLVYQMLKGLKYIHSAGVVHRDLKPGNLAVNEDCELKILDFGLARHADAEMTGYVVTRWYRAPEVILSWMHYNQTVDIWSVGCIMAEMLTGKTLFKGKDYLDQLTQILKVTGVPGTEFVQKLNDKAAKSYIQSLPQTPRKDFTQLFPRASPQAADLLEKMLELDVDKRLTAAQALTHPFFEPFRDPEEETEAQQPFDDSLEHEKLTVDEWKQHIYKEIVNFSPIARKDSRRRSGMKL

[11] = biological target: T5, Mitogen-activated protein kinase 15 (Homo sapiens) (UniProt Q8TD08); test: Residual activity of ERK8 at 10 uM relative to control
T5 sequence (whole entry): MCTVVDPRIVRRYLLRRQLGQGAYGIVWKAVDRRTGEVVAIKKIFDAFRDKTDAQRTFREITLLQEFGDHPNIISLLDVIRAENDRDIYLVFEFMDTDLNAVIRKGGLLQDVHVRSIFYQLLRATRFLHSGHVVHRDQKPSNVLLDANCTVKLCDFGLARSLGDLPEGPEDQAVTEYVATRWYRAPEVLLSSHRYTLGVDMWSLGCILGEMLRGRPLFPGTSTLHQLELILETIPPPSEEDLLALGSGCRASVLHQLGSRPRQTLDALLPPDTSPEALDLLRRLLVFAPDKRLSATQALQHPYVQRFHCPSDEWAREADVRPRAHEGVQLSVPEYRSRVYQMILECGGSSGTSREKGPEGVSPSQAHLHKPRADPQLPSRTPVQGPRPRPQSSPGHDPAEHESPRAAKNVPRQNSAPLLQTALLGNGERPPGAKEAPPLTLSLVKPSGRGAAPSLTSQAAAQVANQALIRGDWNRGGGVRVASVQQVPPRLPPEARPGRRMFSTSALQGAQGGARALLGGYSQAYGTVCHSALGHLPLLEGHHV

[12] = Inhibition of PKA; values are per cent of control
[13] = biological target: Tyrosine-protein kinase Lck (Homo sapiens) (UniProt P06239); test: Inhibition of Lck; values are per cent of control
Chain of Tyrosine-protein kinase Lck (Homo sapiens) (P06239 2-509 limits assumed): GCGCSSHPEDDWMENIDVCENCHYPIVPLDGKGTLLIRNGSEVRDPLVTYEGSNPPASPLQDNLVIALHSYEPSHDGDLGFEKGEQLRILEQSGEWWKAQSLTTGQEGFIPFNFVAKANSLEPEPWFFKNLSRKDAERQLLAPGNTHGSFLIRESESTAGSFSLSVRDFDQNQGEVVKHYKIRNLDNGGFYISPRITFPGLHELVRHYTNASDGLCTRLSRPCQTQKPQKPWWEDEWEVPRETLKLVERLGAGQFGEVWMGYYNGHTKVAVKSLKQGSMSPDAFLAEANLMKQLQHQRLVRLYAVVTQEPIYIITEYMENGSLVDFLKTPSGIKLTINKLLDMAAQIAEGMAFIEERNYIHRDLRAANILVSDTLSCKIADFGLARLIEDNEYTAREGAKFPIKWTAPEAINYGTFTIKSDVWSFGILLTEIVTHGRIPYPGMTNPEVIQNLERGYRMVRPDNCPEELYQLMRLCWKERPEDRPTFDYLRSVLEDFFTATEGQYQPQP

[14] = biological target: T6, Serine/threonine-protein kinase D1 (Homo sapiens) (UniProt Q15139); test: Inhibition of PKD1; values are per cent of control
T6 sequence (whole entry): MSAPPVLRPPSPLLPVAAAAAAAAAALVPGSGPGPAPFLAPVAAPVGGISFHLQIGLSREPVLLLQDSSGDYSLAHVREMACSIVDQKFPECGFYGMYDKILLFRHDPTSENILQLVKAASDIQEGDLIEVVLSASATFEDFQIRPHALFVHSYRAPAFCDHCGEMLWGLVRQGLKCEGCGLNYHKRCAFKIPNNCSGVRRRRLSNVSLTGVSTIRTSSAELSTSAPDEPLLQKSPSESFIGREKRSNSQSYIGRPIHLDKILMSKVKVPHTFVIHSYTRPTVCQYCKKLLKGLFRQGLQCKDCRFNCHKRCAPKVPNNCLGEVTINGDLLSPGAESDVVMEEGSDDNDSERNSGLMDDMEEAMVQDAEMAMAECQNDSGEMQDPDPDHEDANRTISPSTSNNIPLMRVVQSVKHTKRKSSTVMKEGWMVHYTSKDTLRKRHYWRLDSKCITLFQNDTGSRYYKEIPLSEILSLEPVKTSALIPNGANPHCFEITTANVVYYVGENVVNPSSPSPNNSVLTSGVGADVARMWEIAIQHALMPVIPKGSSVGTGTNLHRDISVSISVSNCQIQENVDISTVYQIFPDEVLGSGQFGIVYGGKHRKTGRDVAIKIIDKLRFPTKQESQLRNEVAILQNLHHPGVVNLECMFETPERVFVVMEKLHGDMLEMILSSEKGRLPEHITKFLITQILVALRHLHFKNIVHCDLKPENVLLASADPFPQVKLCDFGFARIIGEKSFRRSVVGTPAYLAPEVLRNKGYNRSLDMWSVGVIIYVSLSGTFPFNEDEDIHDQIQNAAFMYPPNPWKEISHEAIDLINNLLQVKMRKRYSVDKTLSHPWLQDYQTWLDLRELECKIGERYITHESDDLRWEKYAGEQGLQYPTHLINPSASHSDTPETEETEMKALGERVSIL

[15] = biological target: T1, Mitogen-activated protein kinase 14; test: Inhibition of p38alpha
[16] = biological target: Aurora kinase B (Homo sapiens) (UniProt Q96GD4); test: Inhibition of Aurora B; values are per cent of control
Chain of Aurora kinase B (Homo sapiens) (Q96GD4 whole entry): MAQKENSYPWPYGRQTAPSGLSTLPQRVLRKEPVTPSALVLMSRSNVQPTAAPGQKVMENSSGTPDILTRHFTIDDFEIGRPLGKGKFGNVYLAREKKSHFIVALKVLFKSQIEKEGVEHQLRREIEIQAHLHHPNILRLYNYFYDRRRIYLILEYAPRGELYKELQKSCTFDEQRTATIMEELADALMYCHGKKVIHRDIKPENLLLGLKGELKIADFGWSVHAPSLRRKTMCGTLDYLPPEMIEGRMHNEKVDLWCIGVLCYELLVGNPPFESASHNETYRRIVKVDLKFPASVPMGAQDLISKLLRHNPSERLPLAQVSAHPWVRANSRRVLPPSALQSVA

[17] = Inhibition of Aurora C; values are per cent of control

T1 sequence (Q16539 whole entry): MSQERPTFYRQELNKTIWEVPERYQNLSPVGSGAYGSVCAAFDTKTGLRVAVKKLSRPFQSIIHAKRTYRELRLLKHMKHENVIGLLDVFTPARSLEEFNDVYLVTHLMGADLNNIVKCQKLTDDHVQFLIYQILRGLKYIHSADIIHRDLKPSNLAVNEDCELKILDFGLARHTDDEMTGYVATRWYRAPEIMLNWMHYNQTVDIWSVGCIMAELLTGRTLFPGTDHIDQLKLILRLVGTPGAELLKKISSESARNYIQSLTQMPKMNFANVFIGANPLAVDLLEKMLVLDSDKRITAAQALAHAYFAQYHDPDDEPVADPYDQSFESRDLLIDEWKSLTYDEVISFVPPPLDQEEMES

With O=c1[nH]c2ccccc2c(-c2ccccc2)c1-c1ccccc1 the Activity [1] was 64%.
O=c1cc(-c2ccncc2)c2ccccc2[nH]1 gave an Activity [1] of 78%.
With CCC(O)C(O)n1c(=O)c(-c2ccccc2C)c(-c2ccncc2)c2ccccc21 (stereo not drawn) the Activity [1] was 80%.
In the case of CCOc1nc2ccccc2c(-c2ccncc2)c1-c1ccc(F)cc1, the Activity [1] is reported as 66%.
For CC1(C)OCC(Cn2c(=O)c(-c3ccc(F)cc3)c(-c3ccncc3)c3ccccc32)O1 (stereo not drawn), the Activity [1] was 55%.
In the case of CC(C)c1onc(-c2ccc(F)cc2)c1-c1ccncc1, the IC50 [2] is reported as 1.28 µM, the Activity [3] is reported as 92% and the Activity [4] is reported as 86%. The Activity [5] was 67%, the Activity [6] was 13% and the Activity [7] was 28%. The Activity [1] was 20%, the Activity [8] was 95% and the Activity [9] was 84%. For the same compound, the Activity [10] was 86%, the Activity [11] was 84% and the residual activity [12] was 28%. The residual activity [13] was 42% and the residual activity [14] was 60%.
O=c1c(-c2ccc(F)cc2)c(-c2ccncc2)c2ccccc2n1CCc1ccccc1 showed an IC50 [15] of 8.2 µM.
CC#COc1nc2ccccc2c(-c2ccncc2)c1-c1ccc(F)cc1 showed an Activity [1] of 79%.
Compound CC(C)c1noc(-c2ccc(F)cc2)c1-c1ccncc1 has an Activity [3] of 87%, an Activity [4] of 88% and an Activity [5] of 98%. The Activity [6] was 59%, the Activity [7] was 63% and the Activity [1] was 50%. For the same compound, the Activity [8] was 98%, the Activity [9] was 94% and the Activity [10] was 95%. It also gave an Activity [11] of 88%, a residual activity [16] of 22% and a residual activity [17] of 35%.
For Cn1c(=O)c(-c2ccc(F)cc2)c(-c2ccncc2)c2ccccc21, the IC50 [15] was 5.2 µM.
Compound CCC(O)C(O)n1c(=O)c(-c2ccc(F)cc2)c(-c2ccncc2)c2ccccc21 (stereo not drawn) has an Activity [1] of 57%.
Cc1ccccc1-c1c(-c2ccncc2)c2ccccc2[nH]c1=O gave an IC50 [15] of 9.7 µM.
With O=c1[nH]c2ccccc2c(-c2ccncc2)c1-c1ccc(F)cc1 the Activity [3] was 84%, the Activity [4] was 93% and the Activity [5] was 86%. It also gave an Activity [6] of 89%, an Activity [7] of 106% and an Activity [1] of 53%. For the same compound, the Activity [8] was 97%, the Activity [9] was 89% and the Activity [10] was 91%. The Activity [11] was 73%.
In the case of CCn1c(=O)c(-c2ccc(F)cc2)c(-c2ccncc2)c2ccccc21, the IC50 [15] is reported as 2.2 µM.
CC#Cn1c(=O)c(-c2ccc(F)cc2)c(-c2ccncc2)c2ccccc21 showed an IC50 [15] of 3.1 µM.

Reference: ChEMBL document CHEMBL1141471, “Implications for selectivity of 3,4-diarylquinolinones as p38alphaMAP kinase inhibitors” (Bioorg Med Chem Lett, 2008)
